Columns and labels:
[1] = system: patients with KRAS mutations; conditions: previous phase II trial; cited from earlier work
[2] = Urine concentration of Salirasib (LC-MS/MS), day 1; assay type: in vivo, human; conditions: within 24 h, any dosing group (200, 600, 1000 mg sampled)
[3] = clinical; conditions: human, in vivo; for AUC(0-t): AUC12h
Experimental: This trial was a multiple-ascending dose trial in 28-day cycles. The doses used were 100, 200, 400, 600, 800, and 1000 mg. The initial dose (100 mg) was determined in accordance with the International Conference on Harmonisation of Technical Requirements for Registration of Pharmaceuticals for Human Use-S9 guideline. […] Patients received only the morning dose on day 1 for pharmacokinetics evaluation. […] Grades were determined according to the National Cancer Institute Common Terminology Criteria for Adverse Events (NCI-CTCAE v.4.0).
Blood samples were collected 10 times on day 1 (before drug administration, and 0.5-, 1-, 1.5-, 2-, 4-, 6-, 8-, 12-, and 24-h post-administration), once on days 4, 7, and 14, and 9 times on day 21 (before morning dose, and 0.5, 1, 1.5, 2, 4, 6, 8, and 12 h after morning dose but before evening dose). Urine samples were collected from patients who received 200, 600, or 1000 mg on day 1 (before drug administration, and 0–6-, 6–12-, 12–24-h post-administration).

[4] = system: US patients; conditions: cited from earlier work
[5] = system: RAS-mutated patients; conditions: previous phase I/II trials in the USA; cited from earlier work
[6] = system: Japanese patients with relapsed/refractory solid tumors; test: Safety: dose-limiting toxicity and adverse events (NCI-CTCAE v.4.0); assay type: in vivo, human; conditions: for Death: first and repeated regimens
Text: Treatment was immediately terminated at the patient’s request when DLT occurred; the study physician decided that continuation was inappropriate because of AEs; or if the tumor was classified as progressive disease (PD) according to the Response Evaluation Criteria in Solid Tumor (RECIST) Guideline. In cases of DLT, patients were allowed to continue the regimen with dose adjustments upon providing written agreement.
Patients were registered when up to three patients received ≥ 60% of planned treatment in the regimen before DLT was evaluated for dose escalation. […] According to the DLT and pharmacokinetics data obtained by a given time, the recommended dose was determined and additional three patients were added to the dosing group a posteriori.
To evaluate the safety, vital signs (systolic and diastolic blood pressure, pulse rate, body temperature, and body weight), 12-lead electrocardiogram, clinical laboratory tests, chest X-ray, and performance status [Eastern Cooperative Oncology Group (ECOG)] were evaluated on predefined dates (Supplemental Table S1). Examined items in the clinical laboratory tests are listed in Supplemental Table S2.
AEs were graded in accordance with NCI-CTCAE v.4.0 and recorded. The study physicians determined whether the AEs were drug-related and recorded.

CC(C)=CCC/C(C)=C/CC/C(C)=C/CSc1ccccc1C(=O)O [Salirasib, S-trans, trans-farnesylthiosalicylic acid]
partial response (PR) [1]: no patients achieved PR
excretion in urine [2]: not excreted in urine
dose at which Cmax and AUCinf were maximal [3]: 800 mg
dose proportionality of Cmax and AUC12h (power model analyses) [3]: increased proportionally and in dose-dependent manners
half-life [3]: 3.5 to 9.11 h
mean Cmax across dose groups [3]: 1180 to 4870 ng/mL
time to Cmax, median, across dose groups [3]: 2.10 to 4.05 h
AUC(0-inf) ([3]; 100 mg): 4970 ± 1600 ng·h/mL
CL/F, mean ± SD ([3]; 100 mg): 21.6 ± 6.80 L/h
half-life ([3]; 100 mg): 3.81 ± 0.25 h
tmax, Range ([3]; 100 mg): 1.52 to 3.88 h
AUC(0-t) ([3]; 100 mg, mean ± SD): 4700 ± 1490 ng·h/mL
Cmax ([3]; 100 mg, Cmax, mean ± SD): 1340 ± 473 ng/mL
AUC12h, mean ± SD ([3]; 200 mg): 10,500 ± 4450 ng h/mL
AUC(0-inf) ([3]; 200 mg): 11400 ng·h/mL
CL/F, mean ± SD ([3]; 200 mg): 19.1 ± 7.35 L/h
Cmax, mean ± SD ([3]; 200 mg): 2830 ± 822 ng/mL
half-life ([3]; 200 mg): 4.16 ± 1.13 h
tmax, Range ([3]; 200 mg): 2.13 to 4.00 h
AUC(0-t) ([3]; 200 mg, mean ± SD): 10400 ng·h/mL
Cmax ([3]; 200 mg, Cmax, mean ± SD): 2610 ± 837 ng/mL
AUC12h, mean ± SD ([3]; 400 mg): 14,800 ± 3520 ng h/mL
AUC(0-inf) ([3]; 400 mg): 20300 ng·h/mL
CL/F, mean ± SD ([3]; 400 mg): 20.1 ± 3.83 L/h
Cmax, mean ± SD ([3]; 400 mg): 3630 ± 876 ng/mL
half-life ([3]; 400 mg): 4 ± 1.88 h
AUC(0-t) ([3]; 400 mg, mean ± SD): 18000 ng·h/mL
Cmax ([3]; 400 mg, Cmax, mean ± SD): 3250 ± 1440 ng/mL
AUC12h, mean ± SD ([3]; 600 mg): 18,700 ± 4710 ng h/mL
AUC(0-inf) ([3]; 600 mg): 18500 ng·h/mL
CL/F, mean ± SD ([3]; 600 mg): 33.0 ± 5.25 L/h
Cmax, mean ± SD ([3]; 600 mg): 4500 ± 1580 ng/mL
half-life ([3]; 600 mg): 3.5 ± 0.39 h
tmax, Range ([3]; 600 mg): 1.42 to 4.00 h
AUC(0-t) ([3]; 600 mg, mean ± SD): 16900 ng·h/mL
Cmax ([3]; 600 mg, Cmax, mean ± SD): 4870 ± 2390 ng/mL
Tmax ([3]; 600 mg, Median): 2.1 h
Tmax ([3]; 600 mg, Range): 2 to 4 h
AUC12h, mean ± SD ([3]; 800 mg): 16,300 ± 6240 ng h/mL
AUC(0-inf) ([3]; 800 mg): 26600 ng·h/mL
CL/F, mean ± SD ([3]; 800 mg): 30.7 ± 4.55 L/h
Cmax, mean ± SD ([3]; 800 mg): 4790 ± 1100 ng/mL
dose proportionality of Cmax and AUCinf (power model analyses) ([3]; 800 mg): increased proportionally until 400 mg in dose-dependent manners
half-life ([3]; 800 mg): 3.67 ± 0.81 h
tmax, Range ([3]; 800 mg): 2.02 to 5.93 h
AUC(0-t) ([3]; 800 mg, mean ± SD): 23800 ng·h/mL
Cmax ([3]; 800 mg, Cmax, mean ± SD): 3840 ± 2090 ng/mL
Tmax ([3]; 800 mg, Median): 2.98 h
Tmax ([3]; 800 mg, Range): 1.42 to 5.98 h
AUC12h, mean ± SD ([3]; 1000 mg): 15,700 ± 9100 ng h/mL
Cmax, mean ± SD ([3]; 1000 mg): 4990 ± 1210 ng/mL
half-life ([3]; 1000 mg): 9.11 ± 9.79 h
AUC(0-t) ([3]; 1000 mg, mean ± SD): 22400 ng·h/mL
Cmax ([3]; 1000 mg, Cmax, mean ± SD): 2630 ± 1450 ng/mL
Tmax ([3]; 1000 mg, Range): 2 to 3.97 h
Cmax ([3]; mean Cmax across dose groups): 1340 to 4990 ng/mL
AUC(0-t) ([3]; po, 100 mg, mean ± SD): 4610 ng·h/mL
Cmax ([3]; po, 100 mg, Cmax, mean ± SD): 1180 ng/mL
AUC(0-inf) ([3]; po, 1000 mg): 26900 ng·h/mL
drug-related AEs ([4]; US patients on 800-mg regimen): all patients on 800-mg regimen experienced drug-related AEs
Dose-limiting toxicity (DLT) ([4]; phase I trial in the US patients, up to 800 mg): no DLT was observed up to 800 mg
efficacy in RAS-mutated patients [5]: not conclusive
tolerability [5]: good tolerability
Death ([6]; 100 mg twice-daily): 0 (0.0) N (%)
Death ([6]; 200 mg twice-daily): 0 (0.0) N (%)
Death ([6]; 400 mg twice-daily): 0 (0.0) N (%)
Death ([6]; 600 mg twice-daily): 0 (0.0) N (%)
Death ([6]; 800 mg twice-daily): 0 (0.0) N (%)
Death ([6]; 1000 mg twice-daily): 0 (0.0) N (%)
Death ([6]; Total, all dose groups): 0 (0.0) N (%)
deaths during the treatment period, in words ([6]; all dose groups): No patients died
AEs observed at grade ≥ 3: ALP increased ([6]; human, in vivo): 3 (14.3) N (%)
AEs observed at grade ≥ 3: AST increased ([6]; human, in vivo): 1 (4.8) N (%)
AEs observed at grade ≥ 3: Amylase increased ([6]; human, in vivo): 1 (4.8) N (%)
AEs observed at grade ≥ 3: Anemia ([6]; human, in vivo): 2 (9.5) N (%)
AEs observed at grade ≥ 3: Ascites ([6]; human, in vivo): 1 (4.8) N (%)
AEs observed at grade ≥ 3: Bilirubin increased ([6]; human, in vivo): 1 (4.8) N (%)
AEs observed at grade ≥ 3: Cancer pain ([6]; human, in vivo): 1 (4.8) N (%)
AEs observed at grade ≥ 3: Cholestatic jaundice ([6]; human, in vivo): 1 (4.8) N (%)
AEs observed at grade ≥ 3: Decreased appetite ([6]; human, in vivo): 1 (4.8) N (%)
AEs observed at grade ≥ 3: Diarrhea ([6]; human, in vivo): 2 (9.5) N (%)
AEs observed at grade ≥ 3: Hemoglobin decreased ([6]; human, in vivo): 2 (9.5) N (%)
AEs observed at grade ≥ 3: Hypercalcemia ([6]; human, in vivo): 1 (4.8) N (%)
AEs observed at grade ≥ 3: Hyponatremia ([6]; human, in vivo): 2 (9.5) N (%)
AEs observed at grade ≥ 3: Hypophosphatemia ([6]; human, in vivo): 1 (4.8) N (%)
AEs observed at grade ≥ 3: Lymphopenia ([6]; human, in vivo): 1 (4.8) N (%)
AEs observed at grade ≥ 3: Troponin T increased ([6]; human, in vivo): 1 (4.8) N (%)
AEs observed at grade ≥ 3: γ-GTP increased ([6]; human, in vivo): 3 (14.3) N (%)
AEs observed in ≥ 3 patients: Abdominal pain ([6]; human, in vivo): 6 (28.6) N (%)
AEs observed in ≥ 3 patients: Decreased appetite ([6]; human, in vivo): 9 (42.9) N (%)
AEs observed in ≥ 3 patients: Diarrhea ([6]; human, in vivo): 18 (85.7) N (%)
AEs observed in ≥ 3 patients: Nausea ([6]; human, in vivo): 6 (28.6) N (%)
AEs observed in ≥ 3 patients: Vomiting ([6]; human, in vivo): 4 (19.0) N (%)
All AEs ([6]; human, in vivo): 21 (100) N (%)
All drug-related AEs ([6]; human, in vivo): 19 (90.5) N (%)
Discontinuation because of AEs ([6]; human, in vivo): 0 (0.0) N (%)
Discontinuation because of drug-related AEs ([6]; human, in vivo): 0 (0.0) N (%)
Dose-limiting toxicity (DLT) ([6]; human, in vivo): 0 (0.0) N (%)
Patients with AEs of grade ≥ 3 ([6]; human, in vivo): 9 (42.9) N (%)
Patients with drug-related AEs of grade ≥ 3 ([6]; human, in vivo): 4 (19.0) N (%)
Serious AEs ([6]; human, in vivo): 1 (4.8) N (%)
Serious drug-related AEs ([6]; human, in vivo): 0 (0.0) N (%)
patients in whom AEs were observed ([6]; human, in vivo): 21 patients
dose considered safe and tolerable ([6]; human, in vivo, 28 days): up to 1000 mg
AEs of grade ≥ 3, in words ([6]; in vivo): not observed
Dose-limiting toxicity (DLT), in words ([6]; in vivo): no DLT was observed
maximum tolerable dose ([6]; in vivo): No maximum tolerable dose was discerned
patients with drug-related AEs, in words ([6]; in vivo): in all patients except two
serious AE, in words ([6]; in vivo): One serious AE (ascites)

From paper PMC6105164 (Cancer Chemotherapy and Pharmacology, 2018)
